Columns and labels:
HCoV-NL63 [1] = test: Viral yield reduction (VYR) assay, HCoV-NL63 in Caco-2 cells; conditions: read-out: EC50 (μM) HCoV-NL63, progeny virus 24 h post-infection, mean ± SD
HCoV-NL63 [2] = test: Time-of-addition assay; format: cell-based
[3] = Cytotoxicity assay (CCK-8), HCT-8; format: cell-based; conditions: human, HCT-8 cells; CCK-8, 48 h treatment
HCoV-OC43 = test: Viral yield reduction (VYR) assay, HCoV-OC43 in HCT-8 cells; conditions: read-out: EC50 (μM) HCoV-OC43, progeny virus 24 h post-infection, mean ± SD
MRC-5 cells = conditions: human
in vitro = conditions: human
[4] = Cytotoxicity assay (CCK-8), NCTC clone 929; format: cell-based, murine; conditions: mouse, NCTC clone 929 cells; Figure 1C MHV plot label; read-out: NCTC clone CC50 (label inside plot)
HCoV-229E = test: Viral yield reduction (VYR) assay, HCoV-229E in MRC-5 cells; conditions: read-out: EC50 (μM) HCoV-229E, progeny virus 24 h post-infection, mean ± SD
[5] = Cytotoxicity assay (CCK-8), Caco-2; format: cell-based; conditions: human, CCK-8, 48 h treatment
[6] = Cytotoxicity assay (CCK-8), CRFK; format: cell-based, feline; conditions: cat, CRFK cells; Figure 1C CCoV plot label; read-out: CRFK CC50 (label inside plot)
[7] = 2 μM VV116, 2 μM Remdesivir, 300 μg/mL heparan sulfate, MOI 0.1, 24 h post-infection

Row | Molecule | EC50 (HCoV-NL63 [1]) [µM] | Time-of-addition result overall (HCoV-NL63 [2]; 2 μM Remdesivir, compared with VV116) | CC50 at 48 h [3] [µM] | EC50 (HCoV-OC43) [µM] | CC50 (MRC-5 cells) [µM] | CC50 (in vitro) [µM] | CC50 at 48 h [4] [µM] | EC50 (HCoV-229E) [µM] | CC50 at 48 h [5] [µM] | CC50 at 48 h [6] [µM] | Antiviral activity when added at the post-entry phase (NP Western blot) (HCoV-NL63 [2]; [7]) | Antiviral activity when added during the entry phase (NP Western blot) (HCoV-NL63 [2]; [7])
1 | CCC(CC)COC(=O)[C@H](C)N[P@](=O)(OC[C@H]1O[C@@](C#N)(c2ccc3c(N)ncnn23)[C@H](O)[C@@H]1O)Oc1ccccc1 [Remdesivir] | 0.495 ± 0.01 | comparable to that obtained for VV116 | > 100 | 0.069 ± 0.001 | > 100 | > 100 | > 100 | 0.056 ± 0.002 | > 100 | > 100 |  | 
2 | heparan sulfate |  |  |  |  |  |  |  |  |  |  | abolished | demonstrated antiviral activity

Reference: article PMC10748125 (Viruses, 2023)
